# Measurements: US9000008B2, “Amides of acetic and propionic acids” (Bayer Intellectual Property GmbH, priority 2002, dated 2015)
# Where a name gives a salt, the structure may show the parent alone.
# Target: α7 nAChR (Rattus norvegicus (Rat), UniProt Q05941)
# Test: [3H]-methyllycaconitine binding assay, rat brain membranes
# Conditions: inhibition of [3H]-methyllycaconitine binding to rat brain membranes; Ki=IC50/(1+L/KD)
# Procedure: 1. Determination of the Affinity of Test Substances for α7 nAChR by Inhibition of [^3H]-Methyllycaconitine Binding to Rat Brain Membranes
# The [^3H]-methyllycaconitine binding assay is a modification of the method described by Davies et al. (Neuropharmacol. 1999, 38, 679-690).
# Rat brain tissue (hippocampus or whole brain) is homogenized in homogenization buffer (10% w/v). [0.32 M sucrose, 1 mM EDTA; 0.1 mM phenylmethylsulfonyl fluoride (PMSF), 0.01% (w/v) NaN3, pH 7.4, 4° C.] at 600 rpm in a glass homogenizer. The homogenate is centrifuged (1000×g, 4° C., 10 min) and the supernatant is removed. The pellet is resuspended (20% w/v) and the suspension is centrifuged (1000×g, 4° C., […]). The two supernatants are combined and centrifuged (15 000×g, 4° C., 30 min). The pellet obtained in this way is referred to as the P2 fraction.
# The P2 pellet is washed twice with binding buffer (50 mM Tris-HCl, 1 mM MgCl2, 120 mM NaCl, 5 mM KCl, 2 mM CaCl2, pH 7.4), and centrifuged (15 000×g, 4° C., 30 min).
# The P2 membranes are resuspended in binding buffer and incubated in a volume of 250 μl (amount of membrane protein 0.1-0.5 mg) in the presence of 1-5 nM [^3H]methyllycaconitine, 0.1% (w/v) BSA (bovine serum albumin) and various concentrations of the test substance at 21° C. for 2.5 h. The non-specific binding is determined by incubation in the presence of 1 μM α-bungarotoxin or 100 μM nicotine or 10 μM MLA (methyllycaconitine).
# The incubation is stopped by adding 4 ml of PBS (20 mM Na2HPO4, 5 mM KH2PO4, 150 mM NaCl, pH 7.4, 4° C.) and filtering through type A/E glass fiber filters (Gelman Sciences) which have previously been placed in 0.3%. (v/v) polyethyleneimine (PEI) for 3 h. The filters are washed twice with 4 ml of PBS (4° C.), and the bound radioactivity is determined by scintillation measurement. All the assays are carried out in triplicate. The dissociation constant Ki of the test substance was determined from the IC50 of the compounds (concentration of the test substance at which 50% of the ligand bound to the receptor is displaced), the dissociation constant KD and the concentration L of [^3H]-methyllycaconitine using the equation Ki=IC50/(1+L/KD).
# α7 nAChR, sequence (Q05941 23-502): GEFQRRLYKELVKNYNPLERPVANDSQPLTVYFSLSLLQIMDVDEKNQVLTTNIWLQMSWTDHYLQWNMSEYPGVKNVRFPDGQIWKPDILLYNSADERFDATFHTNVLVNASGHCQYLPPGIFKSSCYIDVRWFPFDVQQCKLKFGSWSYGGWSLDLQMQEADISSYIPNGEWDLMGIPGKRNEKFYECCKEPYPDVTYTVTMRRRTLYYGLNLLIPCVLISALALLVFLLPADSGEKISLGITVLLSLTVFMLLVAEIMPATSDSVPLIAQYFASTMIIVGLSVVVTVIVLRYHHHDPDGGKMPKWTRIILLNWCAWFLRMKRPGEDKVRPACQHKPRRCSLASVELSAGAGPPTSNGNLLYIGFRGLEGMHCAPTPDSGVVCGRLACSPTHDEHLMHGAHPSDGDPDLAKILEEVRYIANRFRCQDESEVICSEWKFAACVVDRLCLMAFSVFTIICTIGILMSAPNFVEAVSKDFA
row,Compound,Ki [µM]
1,"O=C(CC1CN2CCC1CC2)Nc1cc2cccc(Br)c2s1 (stereo not shown) [Example 1, 2-(1-Azabicyclo[2.2.2]oct-3-yl)-N-(7-bromo-1-benzothien-2-yl)acetamide hydrochloride]",0.12
2,"O=C(CC1CN2CCC1CC2)Nc1ccc2cccnc2c1 (stereo not shown) [Example 3, 2-(1-Azabicyclo[2.2.2]oct-3-yl)-N-(7-quinolinyl)acetamide hydrochloride]",0.28
3,"O=C(CC1CN2CCC1CC2)Nc1ccc2ccccc2c1 (stereo not shown) [Example 4, 2-(1-Azabicyclo[2.2.2]oct-3-yl)-N-(2-naphthyl)acetamide hydrochloride]",0.042
4,"O=C(CC1CN2CCC1CC2)Nc1ccc2cccc([N+](=O)[O-])c2c1 (stereo not shown) [Example 5, 2-(1-Azabicyclo[2.2.2]oct-3-yl)-N-(8-nitro-2-naphthyl)acetamide hydrochloride]",0.17
